Key:
[1] = Physical and chemical stability of DENSPM preparations at room temperature; assay type: physicochemical
Method: DENSPM may be supplied as a lyophilized powder, for example packaged in 10 mL clear glass vials containing 215 mg. Such a lyophilized powder may be prepared by dissolving DENSPM hydrochloride in sterile WFI to provide a 5% solution. Such solution may be pH adjusted to a pH of preferably between about 5.8 and 6.2, most preferably 6.0, with 2N NaOH. 4.3 ml of this solution is sterile filled into the glass vials thru Millipak (R) 0.45 and 0.22 micron filters and then lyophilized. […] DENSPM is reconstituted with 4.3 mL of water for injection, USP. The resulting solution contains 50 mg/mL of DENSPM and is chemically and physically stable for up to approximately 96 hours at room temperature. When further diluted in 50 mL normal saline, the resulting admixture is chemically and physically stable for up to 24 hours when stored at room temperature. After reconstitution, the drug is normally used within 8 hours because it contains no preservatives.

[2] = Solubility of DENSPM hydrochloride salt in sterile water for injection; assay type: physicochemical; conditions: as its hydrochloride salt
Text: The terms “pharmaceutical composition” and “pharmaceutical preparation” are used interchangeably herein to mean DENSPM in association with a pharmaceutically-acceptable carrier. Excipients and/or adjuvants may optionally be added to the pharmaceutical preparations. DENSPM preparations may be conveniently provided in unit dosage form and may be prepared by methods well-known in the art of pharmacy. Formulations suitable for intravenous administration are preferred. […] Such a solution may be filled into individual dose vials and lyophilized for future reconstitution and administration.

[3] = stated as known effect of DENSPM; cited from earlier work

chemical and physical stability of diluted admixture ([1]; further diluted in 50 mL normal saline, stored at room temperature): up to 24 hours | physical and chemical stability of lyophilized powder ([1]; lyophilized powder from 5% DENSPM hydrochloride solution, pH about 6.0, stored at room temperature): physically and chemically stable | chemical and physical stability of reconstituted solution ([1]; reconstituted with 4.3 mL water for injection, 50 mg/mL, room temperature): ≤ 96 h | solubility [2]: relatively high solubility
SMILES: CCNCCCNCCCNCCCNCC [DENSPM, N,N′-Bis[3-(ethylamino)propyl],1,3-propanediamine]
serum creatinine levels [3]: transiently and reversibly elevate serum creatinine levels

Reference: patent US20070167528A1, “Methods of treating hepatocellular carcinoma with denspm” (Genzyme Corporation, priority 2004, published 2007)
